# Measured values taken from patent publication US9670142B2, “1,3-diaminocyclopentane carboxamide derivatives” (Merck Patent GmbH, priority 2013, dated 2017).
# pIC50: −log10 of the molar value.
# Target: human fatty acid synthase FASN (Homo sapiens (Human), UniProt P49327)
# Assay: Biochemical activity testing of human fatty acid synthase FASN (NADPH fluorescence intensity enzyme assay)
# Conditions: human recombinant full-length fatty acid synthase
# From the text: Biochemical activity testing of human fatty acid synthase FASN
# Fatty acid synthase FASN is a multifunctional enzyme with seven catalytic activities thereby synthesising long chain fatty acids especially palmitoyl-CoA in the presence of co-factor NADPH starting from the substrates acetyl-CoA and malonyl-CoA. The reductive synthesis is realized by the oxidation of NADPH to NADP. Since NADPH has a high fluorescence intensity quantum yield compared to NADP with excitation at 340 nm and emission at 460 nm, the reaction can be monitored via the decrease in fluorescence intensity. The biochemical FASN activity testing was performed as 384 well two-time-point kinetic fluorescence intensity assay format in Greiner low volume medium binding 384-well black microtiter plates in a total assay volume of 8 μl and was used for high throughput screen. In each well 3 μl 40 nM human recombinant full-length fatty acid synthase (produced in-house in SF9 cells) were dispensed in the following assay buffer: 50 mM potassium phosphate buffer pH 7.0, 0.005% (w/v) BSA, 2 mM Glutathione, 0.02% Tween-20. Then 2 μl of 200 μM NADPH in assay buffer were added, followed by the addition of the test compounds in 10 dilution concentrations starting with 30 μM (final concentration) to get a final DMSO content of 1% (v/v). The mixture was incubated for at least 15 min at room temperature. After the pre-incubation the enzymatic reaction was started by the addition of 2 μl substrate solution (80 μM acetyl-CoA, 240 μM malonyl-CoA). A first fluorescence intensity measurement (time point one) was performed with an Envision multimode reader (Perkin Elmer LAS Germany GmbH) at excitation wavelength 340 nm (lamp mode) and emission wavelength 460 nm. The reaction was incubated for 30 minutes at room temperature. After this the fluorescence intensity was measured again in the Envision using the same parameters as described above (second time point measurement). The data were analysed by subtracting the first time point measurement value from the second time point measurement value (after the enzymatic reaction). The differences of the emission signals were determined. These reflect directly the conversion rate of NADPH. The full value used was the inhibitor-free reaction. A pharmacological zero value was used like GSK837149A (Sigma-Aldrich) in a final concentration of 5-10 μM. The inhibitory values (IC50) were determined using either the program Symyx Assay Explorer® or Condosseo® from GeneData.
# Sequence of human fatty acid synthase FASN (P49327 whole entry): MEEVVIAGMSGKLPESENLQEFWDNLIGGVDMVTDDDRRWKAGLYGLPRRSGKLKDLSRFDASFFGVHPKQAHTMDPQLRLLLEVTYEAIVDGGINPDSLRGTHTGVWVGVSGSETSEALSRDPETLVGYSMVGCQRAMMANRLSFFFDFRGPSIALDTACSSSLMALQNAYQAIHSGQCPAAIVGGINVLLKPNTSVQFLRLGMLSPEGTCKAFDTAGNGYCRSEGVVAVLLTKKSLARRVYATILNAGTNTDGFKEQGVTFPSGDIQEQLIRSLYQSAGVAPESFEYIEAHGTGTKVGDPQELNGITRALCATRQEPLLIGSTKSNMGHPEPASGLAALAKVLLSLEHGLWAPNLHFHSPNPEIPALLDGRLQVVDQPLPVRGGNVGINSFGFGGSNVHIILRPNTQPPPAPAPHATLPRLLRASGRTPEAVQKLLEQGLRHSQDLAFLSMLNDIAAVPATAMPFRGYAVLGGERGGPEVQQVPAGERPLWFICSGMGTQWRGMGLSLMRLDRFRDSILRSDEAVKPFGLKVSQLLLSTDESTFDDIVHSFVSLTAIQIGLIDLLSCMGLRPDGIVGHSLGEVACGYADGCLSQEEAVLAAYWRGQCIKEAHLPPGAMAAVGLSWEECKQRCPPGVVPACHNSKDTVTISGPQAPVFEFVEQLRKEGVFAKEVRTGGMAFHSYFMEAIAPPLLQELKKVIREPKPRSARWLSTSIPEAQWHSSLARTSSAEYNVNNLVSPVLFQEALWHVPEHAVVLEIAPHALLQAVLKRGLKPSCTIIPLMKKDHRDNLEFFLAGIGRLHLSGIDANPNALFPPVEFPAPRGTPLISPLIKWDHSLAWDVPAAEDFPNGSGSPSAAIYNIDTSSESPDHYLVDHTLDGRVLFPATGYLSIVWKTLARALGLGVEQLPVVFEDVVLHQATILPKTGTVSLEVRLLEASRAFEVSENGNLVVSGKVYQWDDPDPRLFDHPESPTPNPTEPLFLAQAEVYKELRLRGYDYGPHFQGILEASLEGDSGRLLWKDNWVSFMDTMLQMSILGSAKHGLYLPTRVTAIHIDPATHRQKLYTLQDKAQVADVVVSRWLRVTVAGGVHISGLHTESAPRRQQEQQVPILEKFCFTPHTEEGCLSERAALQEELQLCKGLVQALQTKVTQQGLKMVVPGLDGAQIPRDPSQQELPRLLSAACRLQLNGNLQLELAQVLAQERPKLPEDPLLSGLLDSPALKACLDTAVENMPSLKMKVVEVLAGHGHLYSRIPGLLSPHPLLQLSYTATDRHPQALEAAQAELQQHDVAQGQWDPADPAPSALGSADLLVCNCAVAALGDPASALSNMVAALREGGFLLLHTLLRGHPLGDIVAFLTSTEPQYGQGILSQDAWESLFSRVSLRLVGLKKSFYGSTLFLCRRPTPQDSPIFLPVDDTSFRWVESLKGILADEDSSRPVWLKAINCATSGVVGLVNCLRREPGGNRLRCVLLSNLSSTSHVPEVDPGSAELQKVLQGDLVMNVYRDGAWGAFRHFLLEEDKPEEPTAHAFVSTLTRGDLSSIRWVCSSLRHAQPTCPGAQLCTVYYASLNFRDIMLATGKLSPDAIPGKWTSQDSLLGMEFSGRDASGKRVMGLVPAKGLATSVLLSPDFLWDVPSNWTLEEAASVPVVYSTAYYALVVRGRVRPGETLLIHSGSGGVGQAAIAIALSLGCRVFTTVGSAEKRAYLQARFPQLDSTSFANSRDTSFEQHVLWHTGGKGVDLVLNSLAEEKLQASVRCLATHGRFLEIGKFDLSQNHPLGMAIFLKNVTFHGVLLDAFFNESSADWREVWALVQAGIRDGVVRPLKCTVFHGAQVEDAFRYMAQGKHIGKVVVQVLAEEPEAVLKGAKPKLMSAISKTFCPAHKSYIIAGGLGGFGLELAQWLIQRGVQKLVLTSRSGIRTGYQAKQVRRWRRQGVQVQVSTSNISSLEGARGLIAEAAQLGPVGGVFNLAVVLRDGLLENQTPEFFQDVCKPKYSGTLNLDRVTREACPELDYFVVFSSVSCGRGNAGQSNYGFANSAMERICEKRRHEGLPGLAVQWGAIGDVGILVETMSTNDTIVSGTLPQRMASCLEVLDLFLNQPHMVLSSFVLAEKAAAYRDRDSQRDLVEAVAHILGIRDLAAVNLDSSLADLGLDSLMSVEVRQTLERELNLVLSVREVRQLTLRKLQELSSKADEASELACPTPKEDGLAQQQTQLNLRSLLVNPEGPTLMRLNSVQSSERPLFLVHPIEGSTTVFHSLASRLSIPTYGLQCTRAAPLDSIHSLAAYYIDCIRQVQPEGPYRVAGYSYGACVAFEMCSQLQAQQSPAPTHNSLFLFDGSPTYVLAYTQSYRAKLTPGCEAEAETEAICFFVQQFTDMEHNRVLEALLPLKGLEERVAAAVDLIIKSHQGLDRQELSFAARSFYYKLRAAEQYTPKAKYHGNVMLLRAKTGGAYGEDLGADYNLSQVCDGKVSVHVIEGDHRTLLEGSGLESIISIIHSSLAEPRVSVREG
row,pIC50,SMILES
1,5.52 to 6.52,"CN(C)CC(=O)N[C@H]1CC[C@@H](N(C)C(=O)c2ccc(-c3nc4ccccc4o3)cc2)C1 [Compound A36, 4-benzoxazol-2-yl-N-[(1R,3S)-3-(2-dimethylamino-acetylamino)-cyclopentyl]-N-methyl-benzamide]"
2,> 6.52,"CCC(=O)N[C@H]1CC[C@@H](N(C)C(=O)c2ccc(-c3ccc4cn[nH]c4c3)cc2)C1 [Compound A46, 4-(1H-indazol-6-yl)-N-methyl-N-((1R,3S)-3-propionylamino-cyclopentyl)-benzamide]"
3,> 6.52,"CCC(=O)N[C@H]1CC[C@@H](N(C)C(=O)c2ccc(-c3nc4cccc(F)c4o3)cc2)C1 [Compound A49, 4-(7-fluoro-benzoxazol-2-yl)-N-methyl-N-((1R,3S)-3-propionylamino-cyclopentyl)-benzamide]"
4,> 6.52,"CCC(=O)N[C@H]1CC[C@@H](N(C)C(=O)c2ccc(-c3ccc(C(=O)O)cc3)cc2)C1 [Compound A51, 4′-[methyl-((1R,3S)-3-propionylamino-cyclopentyl)-carbamoyl]-biphenyl-4-carboxylic acid]"
5,> 6.52,"CCC(=O)N[C@H]1CC[C@@H](N(C)C(=O)c2ccc(-c3ccc(C(=O)O)c(C)c3)cc2)C1 [Compound A52, 3-methyl-4′-[methyl-((1R,3S)-3-propionylamino-cyclopentyl)-carbamoyl]-biphenyl-4-carboxylic acid]"
6,> 6.52,"CCC(=O)N[C@H]1CC[C@@H](N(C)C(=O)c2ccc(-c3ccc(F)cc3)cc2)C1 [Compound A53, 4′-fluoro-biphenyl-4-carboxylic acid methyl-((1R,3S)-3-propionylamino-cyclopentyl)-amide]"
7,4.30 to 5.52,"CCC(=O)N[C@H]1CC[C@@H](N(C)C(=O)c2ccc(-c3ccc(C(C)(C)C)cc3)cc2)C1 [Compound A55, tert-butyl-biphenyl-4-carboxylic acid methyl-((1R,3S)-3-propionylamino-cyclopentyl)-amide]"
8,> 6.52,"CCC(=O)N[C@H]1CC[C@@H](N(C)C(=O)c2ccc(-c3ccc(OC)c(OC)c3)cc2)C1 [Compound A56, 3′,4′-dimethoxy-biphenyl-4-carboxylic acid methyl-((1R,3S)-3-propionylamino-cyclopentyl)-amide]"
9,> 6.52,"CCC(=O)N[C@H]1CC[C@@H](N(C)C(=O)c2ccc(-c3ccc(C(N)=O)cc3)cc2)C1 [Compound A57, biphenyl-4,4′-dicarboxylic acid 4′-amide 4-[methyl-((1R,3S)-3-propionylamino-cyclopentyl)-amide]]"
10,> 6.52,"CCC(=O)N[C@H]1CC[C@@H](N(C)C(=O)c2ccc(-c3ccc4c(c3)OCO4)cc2)C1 [Compound A58, 4-benzo[1,3]dioxol-5-yl-N-methyl-N-((1R,3S)-3-propionylamino-cyclopentyl)-benzamide]"
11,> 6.52,"CCC(=O)N[C@H]1CC[C@@H](N(C)C(=O)c2ccc(-c3ccc4ncsc4c3)cc2)C1 [Compound A59, 4-benzothiazol-6-yl-N-methyl-N-((1R,3S)-3-propionylamino-cyclopentyl)-benzamide]"
12,> 6.52,"CCC(=O)N[C@H]1CC[C@@H](N(C)C(=O)c2ccc(-c3ccc4c(c3)NC(=O)C4)cc2)C1 [Compound A60, N-methyl-4-(2-oxo-2,3-dihydro-1H-indol-6-yl)-N-((1R,3S)-3-propionylamino-cyclopentyl)-benzamide]"
13,4.30 to 5.52,"CCC(=O)N[C@H]1CC[C@@H](N(C)C(=O)c2ccc(-c3cc(F)c(C#N)c(F)c3)cc2)C1 [Compound A61, 4′-cyano-3′,5′-difluoro-biphenyl-4-carboxylic acid methyl-((1R,3S)-3-propionylamino-cyclopentyl)-amide]"
14,5.52 to 6.52,"CCC(=O)N[C@H]1CC[C@@H](N(C)C(=O)c2ccc(-c3ccc(OC(F)(F)F)cc3)cc2)C1 [Compound A62, 4′-trifluoromethoxy-biphenyl-4-carboxylic acid methyl-((1R,3S)-3-propionylamino-cyclopentyl)-amide]"
15,> 6.52,"CCC(=O)N[C@H]1CC[C@@H](N(C)C(=O)c2ccc(-c3ccc(F)c(Cl)c3)cc2)C1 [Compound A63, 3′-chloro-4′-fluoro-biphenyl-4-carboxylic acid methyl-((1R,3S)-3-propionylamino-cyclopentyl)-amide]"
16,> 6.52,"CCC(=O)N[C@H]1CC[C@@H](N(C)C(=O)c2ccc(-c3ccc(C(F)(F)F)cc3)cc2)C1 [Compound A64, 4′-trifluoromethyl-biphenyl-4-carboxylic acid methyl-((1R,3S)-3-propionylamino-cyclopentyl)-amide]"
17,> 6.52,"CCC(=O)N[C@H]1CC[C@@H](N(C)C(=O)c2ccc(-c3ccc(OC)cc3C)cc2)C1 [Compound A65, 4′-methoxy-2′-methyl-biphenyl-4-carboxylic acid methyl-((1R,3S)-3-propionylamino-cyclopentyl)-amide]"

# Continued, compound first:
row,SMILES,pIC50
1,"CC(C)CC(=O)N[C@H]1CC[C@@H](N(C)C(=O)c2ccc(-c3nc4ccccc4o3)cc2)C1 [Compound A35, 4-benzoxazol-2-yl-N-methyl-N-[(1R,3S)-3-(3-methyl-butyrylamino)-cyclopentyl]-benzamide]",> 6.52
2,"C[C@H](O)C(=O)N[C@H]1CC[C@@H](N(C)C(=O)c2ccc(-c3nc4ccccc4o3)cc2)C1 [Compound A37, 4-benzoxazol-2-yl-N-[(1R,3S)-3-((S)-2-hydroxy-propionylamino)-cyclopentyl]-N-methyl-benzamide]",> 6.52
3,"CC(=O)NCCC(=O)N[C@H]1CC[C@@H](N(C)C(=O)c2ccc(-c3nc4ccccc4o3)cc2)C1 [Compound A38, N-[(1R,3S)-3-(3-acetylamino-propionylamino)-cyclopentyl]-4-benzoxazol-2-yl-N-methyl-benzamide]",5.52 to 6.52
4,"COC(=O)[C@H](CC(=O)N[C@H]1CC[C@@H](N(C)C(=O)c2ccc(-c3nc4ccccc4o3)cc2)C1)NC(C)=O [Compound A39, (S)-2-acetylamino-N-{(1S,3R)-3-[(4-benzoxazol-2-yl-benzoyl)-methyl-amino]-cyclopentyl}-succinamic acid methyl ester]",5.52 to 6.52
5,"CN(C(=O)c1ccc(-c2nc3ccccc3o2)cc1)[C@@H]1CC[C@H](NC(=O)[C@H]2CCCO2)C1 [Compound A40, (R)-tetrahydro-furan-2-carboxylic acid {(1S,3R)-3-[(4-benzoxazol-2-yl-benzoyl)-methyl-amino]-cyclopentyl}-amide]",> 6.52
6,"CN(C(=O)c1ccc(-c2nc3ccccc3o2)cc1)[C@@H]1CC[C@H](NC(=O)[C@@H]2CCCO2)C1 [Compound A41, (S)-tetrahydro-furan-2-carboxylic acid {(1S,3R)-3-[(4-benzoxazol-2-yl-benzoyl)-methyl-amino]-cyclopentyl}-amide]",> 6.52
7,"CC(=O)N[C@@H](C(=O)N[C@H]1CC[C@@H](N(C)C(=O)c2ccc(-c3nc4ccccc4o3)cc2)C1)C(C)C [Compound A42, N-[(1R,3S)-3-((R)-2-acetylamino-3-methyl-butyrylamino)-cyclopentyl]-4-benzoxazol-2-yl-N-methyl-benzamide]",4.30 to 5.52
8,"CC(=O)N[C@H](C(=O)N[C@H]1CC[C@@H](N(C)C(=O)c2ccc(-c3nc4ccccc4o3)cc2)C1)C(C)C [Compound A43, N-[(1R,3S)-3-((S)-2-acetylamino-3-methyl-butyrylamino)-cyclopentyl]-4-benzoxazol-2-yl-N-methyl-benzamide]",5.52 to 6.52
9,CN(C(=O)c1ccc(-c2nc3ccccc3o2)cc1)[C@@H]1CC[C@H](NC(=O)CC2CCCC2)C1 [Compound A44],> 6.52
10,"CN(C(=O)c1ccc(-c2nc3ccccc3o2)cc1)[C@@H]1CC[C@H](NC(=O)C[C@@H]2CCC(=O)N2)C1 [Compound A45, 4-benzoxazol-2-yl-N-methyl-N-{(1R,3S)-3-[2-((S)-5-oxo-pyrrolidin-2-yl)-acetylamino]-cyclopentyl}-benzamide]",4.30 to 5.52
11,"CC(=O)N[C@@H](C)C(=O)N[C@H]1CC[C@@H](N(C)C(=O)c2ccc(-c3nc4ccccc4o3)cc2)C1 [Compound A47, N-[(1R,3S)-3-((S)-2-acetylamino-propionylamino)-cyclopentyl]-4-benzoxazol-2-yl-N-methyl-benzamide]",4.30 to 5.52
12,"CN(C(=O)c1ccc(-c2nc3cccc(F)c3o2)cc1)[C@@H]1CC[C@H](NC(=O)C2CC2)C1 [Compound A50, N-[(1R,3S)-3-(cyclopropanecarbonyl-amino)-cyclopentyl]-4-(7-fluoro-benzoxazol-2-yl)-N-methyl-benzamide]",5.52 to 6.52
13,"CCC(=O)N[C@H]1CC[C@@H](N(C)C(=O)c2ccc(-c3ccc(C4CCC(C)CC4)cc3F)cc2)C1 (stereo partly drawn) [Compound A54, 2′-fluoro-4′-(4-methyl-cyclohexyl)-biphenyl-4-carboxylic acid methyl-((1R,3S)-3-propionylamino-cyclopentyl)-amide]",5.52 to 6.52
